Source: US8134013B2, “Amide compound and thrombopoietin receptor activator” (Nissan Chemical Industries, Ltd., priority 2004, dated 2012)

Legend:
[1] = target: T1, human thrombopoietin receptor (c-mpl) (Homo sapiens, UniProt P40238); test: Stimulation of proliferation of thrombopoietin-dependent cell line UT7/EPO-mpl (WST-8); type: cell-based; details: for EC50: human leukemic cell line UT-7/EPO-mpl, 4 days incubation, relative to 10 ng/mL TPO, read-out: EC50 (concentration that yields a growth rate corresponding to 50% of the growth observed in the presence of 10 ng/mL TPO) (converted)
T1 construct: expressed in transfected cells
T1 sequence (P40238 26-635): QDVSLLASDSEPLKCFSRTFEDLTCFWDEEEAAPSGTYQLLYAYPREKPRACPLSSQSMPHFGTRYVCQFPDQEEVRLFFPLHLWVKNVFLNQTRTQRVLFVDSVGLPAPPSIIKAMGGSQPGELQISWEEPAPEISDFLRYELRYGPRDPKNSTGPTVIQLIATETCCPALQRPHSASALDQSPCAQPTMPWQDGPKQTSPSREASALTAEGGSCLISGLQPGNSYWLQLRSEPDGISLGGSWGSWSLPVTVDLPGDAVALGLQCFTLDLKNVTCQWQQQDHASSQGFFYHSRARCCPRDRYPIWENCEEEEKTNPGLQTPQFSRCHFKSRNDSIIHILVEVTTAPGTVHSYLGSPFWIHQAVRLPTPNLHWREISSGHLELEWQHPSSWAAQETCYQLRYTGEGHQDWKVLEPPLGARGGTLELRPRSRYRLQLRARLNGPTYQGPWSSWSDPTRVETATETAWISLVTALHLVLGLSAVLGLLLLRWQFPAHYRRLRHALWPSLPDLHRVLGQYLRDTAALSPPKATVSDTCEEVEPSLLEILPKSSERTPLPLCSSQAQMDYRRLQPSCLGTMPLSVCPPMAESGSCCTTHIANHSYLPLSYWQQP
Experimental: The response of thrombopoietin receptor to the compound of Synthetic Example 2 of the present invention was assayed using a human leukemic cell line, UT7/EPO-mpl.
(§1) UT7/EPO-mpl is a stable transformed cell line obtained by introducing into human leukemic cell line UT7/EPO a vector that induces expression of human thrombopoietin receptor (c-mpl) under control of cytomegalovirus immediate-early promoter by the method of Takatoku et al. (J. Biol. Chem., 272:7259-7263 (1997)). […] These two cell lines were subcultured in IMDM (GIBCO) containing 10% fetal bovine serum (Thermo Electron or BioWest) using a CO2 incubator (5% CO2, 37° C.).
The subcultured cells described above were washed twice with PBS and suspended in IMDM containing 10% fetal bovine serum at a cell density of 6×10^4 cells/ml. The cell suspension was transferred to a 96-well tissue culture plate (CORNING) in 100-μl aliquots. Then either thrombopoietin (Pepro Tech EC, or the compound of Synthetic Example 2 dissolved in dimethyl sulfoxide was diluted 83-fold with IMDM containing 10% fetal bovine serum and added to the aforementioned cell suspension in 20-μl aliquots. The cell suspension was incubated in a CO2 incubator (5% CO2, 37° C.) for 4 days. Cell proliferation was assayed using WST-8 reagent (Kishida Chemical Co., Ltd.) according to instructions by the manufacturer. A 10-μl aliquot of 5 mM WST-8 reagent solution was added to each well of the tissue culture plate, and the plate was incubated at 37° C. for 4 hours. The formazan pigment generated was detected by measuring the absorbance at 450 nm with a 96-well microplate reader (Nihon Molecular Devices, Spectramax 190).
The compounds of the following Synthetic Examples were tested according to the method of Assay Example 1 to determine the concentration of each compound that yields a growth rate corresponding to 50% of the growth of human leukemic cell line UT-7/EPO-mpl observed in the presence of 10 ng/mL TPO (EC50).

[2] = system: UT7/EPO cells; test: Proliferation of mother cell line UT7/EPO expressing no thrombopoietin receptor (WST-8); type: cell-based, human; details: FIG. 2
Experimental: as §1
The subcultured cells described above were washed twice with PBS and suspended in IMDM containing 10% fetal bovine serum at a cell density of 6×10^4 cells/ml. The cell suspension was transferred to a 96-well tissue culture plate (CORNING) in 100-μl aliquots. […] The formazan pigment generated was detected by measuring the absorbance at 450 nm with a 96-well microplate reader (Nihon Molecular Devices, Spectramax 190).

[3] = target: T1, human thrombopoietin receptor (c-mpl); details: property of the cell line as described; cited from earlier work
[4] = system: UT7/EPO cells; details: property of the cell line as described; cited from earlier work

EC50 [1]	Compound	also measured
2.27 nM	C/C(=N\NC(=O)c1ccc(C(=O)NN(C)C)s1)c1csc(-c2ccc(C(C)(C)C)cc2)c1O [compound 24]	
6.5 nM	C/C(=N\NC(=O)c1ccc(C(=O)NCCC(=O)O)s1)c1csc(-c2ccc(Cl)cc2)c1O [compound 45]	
5.01 nM	COC1CN(C(=O)c2ccc(C(=O)N/N=C(\C)c3csc(-c4ccc(Br)cc4)c3O)s2)CC1OC (stereo not shown) [compound 84]	
0.566 nM	CC(=O)NC1CCN(C(=O)c2ccc(C(=O)N/N=C(\C)c3csc(-c4ccc(Cl)c(Cl)c4)c3O)s2)C1 (stereo not shown) [compound 5]	
0.652 nM	C/C(=N\NC(=O)c1ccc(C(=O)N2CC(O)C(O)C2)s1)c1csc(-c2cccc(Cl)c2)c1O (stereo not shown) [compound 90]	
	C/C(=N\NC(=O)c1ccc(C(=O)NCC2CCCO2)s1)c1csc(-c2ccc(Cl)c(Cl)c2)c1O (stereo not shown) [Synthetic Example 2, 5-{1-[5-(3,4-Dichlorophenyl)-4-hydroxythiophen-3-yl]ethylidenehydrazinocarbonyl}thiophene-2-carboxylic acid(tetrahydrofuran-2-ylmethyl)amide]	proliferation of thrombopoietin-responsive UT7/EPO-mpl cells ([1]; FIG. 1, UT7/EPO-mpl cells, 4 days, WST-8 absorbance at 450 nm): stimulated; acts on the thrombopoietin receptor selectively as an activator ([1]; conclusion from UT7/EPO-mpl versus UT7/EPO): selectively; effect on proliferation of UT7/EPO, the mother cell line [2]: no effect
	TPO: Thrombopoietin is a cytokine consisting of 332 amino acids that increases platelet production	proliferation of UT7/EPO-mpl cell line [3]: stimulated; response of mother cell line UT7/EPO [4]: no response
1.56 nM	C/C(=N\NC(=O)c1ccc(C(=O)NNc2ccccn2)s1)c1csc(-c2ccc(Cl)c(Cl)c2)c1O [compound 58]	
4.12 nM	C/C(=N\NC(=O)c1ccc(C(=O)NCCC(=O)O)s1)c1csc(-c2ccc(C)c(C)c2)c1O [compound 65]	
2.77 nM	C/C(=N\NC(=O)c1ccc(C(=O)NCCCN2CCOCC2)s1)c1nn(C)c(-c2ccc(C(F)(F)F)cc2)c1O [compound 49]	
